Columns and labels:
Format in all cases: cell-based
FGF-7 [1] = experiment: Increased expression of FGF-7 in human dermal papilla cells by quantitative RT-PCR
Protocol: The human dermal papilla cells (DPC) used in the experiment consisted of DPC originating in a person that were placed in frozen storage after being isolated and cultured from human scalp provided as a by-product of plastic surgery. […] Only MEM (serum-free) was used for the control cells, and these cells were treated in the same manner. mRNA was extracted from the cultured cells with MagNAPureLC (Roche Diagnostics) at 2, 4, 8 and 24 hours after addition of adenosine followed by cDNA synthesis using the SuperScriptII reverse transcriptase kit (Invitrogen). The expressed amounts of mRNA were compared by real-time PCR using the fluorescent pigment CyberGreen I, which binds to the minor grooves of double-stranded DNA, with the LightCycler-FastStart DNA Master SYBR Green I Kit (Roche Diagnostics) by using the synthesized cDNA as a template. […] This fluorescent intensity reflects the amount of PCR product at that point in time. The amount of expressed gene was hypothesized to be that which is amplified while satisfying Y=A×2^X for the PCR product Y of the initial amount of template A during the exponential amplification period of the PCR product relative to the number of PCR cycles X, and a relative value was calculated from the number of cycles needed to obtain a given amount of PCR product. The following indicates the FGF-7 amplification primers used in this study. An RT-PCR experiment was carried out in the same manner as Experiment 1 with the exception of using two concentrations of adenosine consisting of 10 μM and 100 μM and setting the duration of adenosine treatment to 3 hours. […] The results are shown in FIGS. 4, 5 and 6, respectively.

FGF-7 [2] = experiment: Increased expression of FGF-7 in human immortalized dermal papilla cells by quantitative RT-PCR; conditions: human immortalized dermal papilla cells (SV40 large T antigen), adenosine, 2 hours, FIG. 8
Protocol: mRNA was extracted from the cultured cells with MagNAPureLC (Roche Diagnostics) at 2, 4, 8 and 24 hours after addition of adenosine followed by cDNA synthesis using the SuperScriptII reverse transcriptase kit (Invitrogen). The expressed amounts of mRNA were compared by real-time PCR using the fluorescent pigment CyberGreen I, which binds to the minor grooves of double-stranded DNA, with the LightCycler-FastStart DNA Master SYBR Green I Kit (Roche Diagnostics) by using the synthesized cDNA as a template. […] The amount of expressed gene was hypothesized to be that which is amplified while satisfying Y=A×2^X for the PCR product Y of the initial amount of template A during the exponential amplification period of the PCR product relative to the number of PCR cycles X, and a relative value was calculated from the number of cycles needed to obtain a given amount of PCR product. […]

FGF-7 [3] = experiment: Increased expression of FGF-7 in human outer root sheath cells by quantitative RT-PCR; conditions: adenosine 10 or 100 μM, 3 hours, FIG. 9
Protocol: The expressed amounts of mRNA were compared by real-time PCR using the fluorescent pigment CyberGreen I, which binds to the minor grooves of double-stranded DNA, with the LightCycler-FastStart DNA Master SYBR Green I Kit (Roche Diagnostics) by using the synthesized cDNA as a template. More specifically, a total volume of 20 μl of reaction liquid (MgCl2: 2 mM, forward and reverse primer: 0.25 μM each) was prepared according to the manual provided using the LightCycler-FastStart DNA Master SYBR Green I Kit (Roche Diagnostics), and a PCR reaction was carried out with the LightCycler (enzyme activation: 95° C./10 minutes; thermal denaturation: 95° C./15 seconds; annealing: 58° C./5 seconds; elongation reaction: 72° C./10 seconds; 40 cycles of thermal denaturation to elongation reaction) followed by monitoring fluorescent intensity at completion of the elongation reaction of each cycle. This fluorescent intensity reflects the amount of PCR product at that point in time. The amount of expressed gene was hypothesized to be that which is amplified while satisfying Y=A×2^X for the PCR product Y of the initial amount of template A during the exponential amplification period of the PCR product relative to the number of PCR cycles X, and a relative value was calculated from the number of cycles needed to obtain a given amount of PCR product. […]

[4] = 100 μM, 2 hours, FIGS. 4, 5 and 6
[5] = CCPA 100 μM, C1-IB-MECA 50 μM, NECA 10 μM, 3 hours, FIG. 3

SMILES | inhibition of increased FGF-7 expression by the adenosine receptor inhibitor 8-SPT (FGF-7 [1]; 100 μM, 2 hours) | expression of FGF-7 (relative amount) (FGF-7 [1]; [4]) | expression of FGF-7 (relative amount) (FGF-7 [1]; [5]) | also measured
Cc1ccc(C2Oc3ccccc3C(=O)C2C)cc1 (stereo not drawn) [3,4′-dimethylflavanone] | not observed | increased expression of FGF-7 | – | –
CC1C(=O)c2ccccc2OC1c1ccccc1 (stereo not drawn) [3-methylflavanone] | not observed | increased expression of FGF-7 | – | –
OC[C@H]1O[C@@H](n2cnc3c(NC4CCCC4)nc(Cl)nc32)[C@H](O)[C@@H]1O [CCPA, 2-chloro-N^6-cyclopentyladenosine, reference compound] | – | – | significantly increased | –
CCNC(=O)[C@H]1O[C@@H](n2cnc3c(N)ncnc32)[C@H](O)[C@@H]1O [NECA, N-ethylcarboxyamidoadenosine, reference compound] | – | – | significantly increased | –
Nc1ncnc2c1ncn2[C@@H]1O[C@H](CO)[C@@H](O)[C@H]1O [adenosine] | – | – | – | expression of FGF-7 (relative amount) (FGF-7 [2]): increased expression of FGF-7; expression of FGF-7 (relative amount) (FGF-7 [3]): prominent increase in expression of FGF-7; expression of FGF-7 (relative amount) (FGF-7 [1]; adenosine 10 μM and 100 μM, 3 hours, FIG. 2): increase dependent on the concentration of adenosine; expression of FGF-7 (relative value) (FGF-7 [1]; adenosine 100 μM, mRNA at 2, 4, 8 and 24 hours, FIG. 1): increased considerably
O=C1CC(c2ccccc2)Oc2ccccc21 (stereo not drawn) [flavanone, reference compound] | not observed | increased expression of FGF-7 | – | –

Reference: patent publication US20070299032A1, “Method and Composition for Thickening Hair” (Shiseido Company, Ltd., priority 2003, published 2007)
